According to article PMC6848746 (Psychopharmacology, 2019):
Read-outs that look alike come from different tables or passages of the source.

Columns and labels:
5-HT2C = target: T1, 5-HT2C (Homo sapiens, UniProt P28335); assay: Radioligand binding
T1 sequence (P28335 33-458): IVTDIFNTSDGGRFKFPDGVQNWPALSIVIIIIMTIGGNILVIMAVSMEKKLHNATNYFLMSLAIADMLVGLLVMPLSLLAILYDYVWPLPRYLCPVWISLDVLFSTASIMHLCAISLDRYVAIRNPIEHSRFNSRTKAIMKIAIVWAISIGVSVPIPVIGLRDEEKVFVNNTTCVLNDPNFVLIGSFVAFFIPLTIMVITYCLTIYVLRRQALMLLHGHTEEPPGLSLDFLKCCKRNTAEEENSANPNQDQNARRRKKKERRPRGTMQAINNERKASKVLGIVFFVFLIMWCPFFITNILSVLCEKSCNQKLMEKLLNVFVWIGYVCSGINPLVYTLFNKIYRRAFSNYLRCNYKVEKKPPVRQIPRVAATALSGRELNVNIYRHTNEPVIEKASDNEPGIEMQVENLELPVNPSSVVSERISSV

5-HT7 = 5-HT7 (Homo sapiens, UniProt P34969); assay: Radioligand binding
Chain of 5-HT7 (P34969 whole entry): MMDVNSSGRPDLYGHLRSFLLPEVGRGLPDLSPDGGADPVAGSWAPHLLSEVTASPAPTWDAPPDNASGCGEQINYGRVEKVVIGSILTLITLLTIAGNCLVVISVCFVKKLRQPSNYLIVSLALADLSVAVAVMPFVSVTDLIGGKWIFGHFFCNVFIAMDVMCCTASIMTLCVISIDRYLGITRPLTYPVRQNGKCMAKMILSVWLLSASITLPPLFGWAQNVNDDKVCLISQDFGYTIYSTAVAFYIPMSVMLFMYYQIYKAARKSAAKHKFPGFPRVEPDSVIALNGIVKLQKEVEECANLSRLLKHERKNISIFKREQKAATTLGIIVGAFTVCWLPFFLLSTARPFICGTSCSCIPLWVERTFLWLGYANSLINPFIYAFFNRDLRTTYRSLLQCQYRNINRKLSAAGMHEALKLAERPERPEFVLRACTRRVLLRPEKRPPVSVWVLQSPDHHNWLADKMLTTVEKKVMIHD

SERT = SERT (Rattus norvegicus, UniProt P31652); assay: SERT-mediated release of [3H]5-HT from rat brain synaptosomes; type: biochemical; details: for Emax: read-out: SERT-mediated release Emax
Chain of SERT (P31652 whole entry): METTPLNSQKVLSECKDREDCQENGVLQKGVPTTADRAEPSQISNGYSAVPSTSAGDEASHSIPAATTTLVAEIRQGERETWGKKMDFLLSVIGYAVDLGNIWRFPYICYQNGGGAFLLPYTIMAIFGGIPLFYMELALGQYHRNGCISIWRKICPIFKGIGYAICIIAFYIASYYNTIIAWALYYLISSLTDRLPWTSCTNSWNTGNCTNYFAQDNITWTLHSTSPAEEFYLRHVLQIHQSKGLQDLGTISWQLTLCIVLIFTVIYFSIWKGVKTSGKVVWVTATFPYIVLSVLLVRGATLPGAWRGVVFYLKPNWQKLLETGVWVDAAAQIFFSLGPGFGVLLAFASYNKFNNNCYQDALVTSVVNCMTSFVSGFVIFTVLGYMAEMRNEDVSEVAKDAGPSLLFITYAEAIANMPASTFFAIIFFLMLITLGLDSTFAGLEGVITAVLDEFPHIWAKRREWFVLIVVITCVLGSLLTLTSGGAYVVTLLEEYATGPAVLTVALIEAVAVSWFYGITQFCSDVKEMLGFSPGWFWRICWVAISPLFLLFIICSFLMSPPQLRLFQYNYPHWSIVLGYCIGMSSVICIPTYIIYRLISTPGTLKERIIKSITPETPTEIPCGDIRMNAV

α1A = target: T2, α1A (Homo sapiens, UniProt P35348); assay: Radioligand binding
T2 sequence (P35348 1-466): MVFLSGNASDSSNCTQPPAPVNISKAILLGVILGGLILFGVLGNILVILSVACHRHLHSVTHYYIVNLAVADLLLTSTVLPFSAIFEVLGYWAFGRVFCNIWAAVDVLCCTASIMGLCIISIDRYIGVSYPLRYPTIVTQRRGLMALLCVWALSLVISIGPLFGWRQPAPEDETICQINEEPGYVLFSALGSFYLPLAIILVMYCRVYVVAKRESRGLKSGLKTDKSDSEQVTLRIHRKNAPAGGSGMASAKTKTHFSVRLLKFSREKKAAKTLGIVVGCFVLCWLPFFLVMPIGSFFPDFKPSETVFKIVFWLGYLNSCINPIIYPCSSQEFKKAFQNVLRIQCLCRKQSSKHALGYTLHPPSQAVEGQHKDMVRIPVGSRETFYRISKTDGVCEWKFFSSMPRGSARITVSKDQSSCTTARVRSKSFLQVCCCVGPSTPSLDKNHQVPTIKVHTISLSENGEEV

α2C = target: T3, α2C (Homo sapiens, UniProt P18825); assay: Radioligand binding; details: for fold lower affinity for α2C compared to 2-AI: binding, [3H]rauwolscine
T3 sequence (P18825 1-462): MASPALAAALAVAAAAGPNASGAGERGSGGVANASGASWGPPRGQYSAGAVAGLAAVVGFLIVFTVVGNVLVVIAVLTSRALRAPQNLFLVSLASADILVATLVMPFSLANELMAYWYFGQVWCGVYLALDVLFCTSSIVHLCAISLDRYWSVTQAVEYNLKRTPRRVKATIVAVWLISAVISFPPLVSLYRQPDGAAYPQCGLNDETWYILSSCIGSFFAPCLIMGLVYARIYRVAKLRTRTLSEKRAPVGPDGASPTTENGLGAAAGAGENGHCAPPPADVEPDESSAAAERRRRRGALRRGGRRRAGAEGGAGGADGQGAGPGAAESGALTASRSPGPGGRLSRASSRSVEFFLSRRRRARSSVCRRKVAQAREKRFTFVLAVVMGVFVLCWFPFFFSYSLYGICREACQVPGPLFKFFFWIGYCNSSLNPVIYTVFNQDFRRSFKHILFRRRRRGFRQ

D2 = D2 (Homo sapiens, UniProt P14416); assay: Radioligand binding
Chain of D2 (P14416 whole entry): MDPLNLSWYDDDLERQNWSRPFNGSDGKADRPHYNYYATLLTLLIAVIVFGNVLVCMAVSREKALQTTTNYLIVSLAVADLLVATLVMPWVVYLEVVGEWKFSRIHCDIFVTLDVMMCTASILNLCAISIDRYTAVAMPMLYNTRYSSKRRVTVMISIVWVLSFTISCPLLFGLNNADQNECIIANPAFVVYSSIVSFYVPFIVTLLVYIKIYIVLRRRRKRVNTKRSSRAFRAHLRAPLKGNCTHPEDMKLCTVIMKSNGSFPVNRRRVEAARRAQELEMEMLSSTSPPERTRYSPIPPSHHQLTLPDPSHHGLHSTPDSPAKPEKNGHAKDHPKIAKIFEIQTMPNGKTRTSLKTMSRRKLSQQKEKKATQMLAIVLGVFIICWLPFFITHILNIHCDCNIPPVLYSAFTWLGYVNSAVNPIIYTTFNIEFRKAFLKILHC

D3 = D3 (Homo sapiens, UniProt P35462); assay: Radioligand binding
Chain of D3 (P35462 whole entry): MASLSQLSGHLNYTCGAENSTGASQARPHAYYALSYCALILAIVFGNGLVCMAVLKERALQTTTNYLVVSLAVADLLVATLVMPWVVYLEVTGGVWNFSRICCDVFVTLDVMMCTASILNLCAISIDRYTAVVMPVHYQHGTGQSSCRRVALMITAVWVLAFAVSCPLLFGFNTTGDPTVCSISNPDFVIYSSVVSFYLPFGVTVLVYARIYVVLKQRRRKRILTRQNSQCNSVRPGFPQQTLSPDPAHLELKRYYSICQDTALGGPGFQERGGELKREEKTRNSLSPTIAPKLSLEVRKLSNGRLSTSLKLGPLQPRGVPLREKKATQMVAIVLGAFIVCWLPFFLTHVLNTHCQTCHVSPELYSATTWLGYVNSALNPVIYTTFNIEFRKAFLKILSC

5-HT6 = 5-HT6 (Homo sapiens, UniProt P50406); assay: Radioligand binding
Chain of 5-HT6 (P50406 whole entry): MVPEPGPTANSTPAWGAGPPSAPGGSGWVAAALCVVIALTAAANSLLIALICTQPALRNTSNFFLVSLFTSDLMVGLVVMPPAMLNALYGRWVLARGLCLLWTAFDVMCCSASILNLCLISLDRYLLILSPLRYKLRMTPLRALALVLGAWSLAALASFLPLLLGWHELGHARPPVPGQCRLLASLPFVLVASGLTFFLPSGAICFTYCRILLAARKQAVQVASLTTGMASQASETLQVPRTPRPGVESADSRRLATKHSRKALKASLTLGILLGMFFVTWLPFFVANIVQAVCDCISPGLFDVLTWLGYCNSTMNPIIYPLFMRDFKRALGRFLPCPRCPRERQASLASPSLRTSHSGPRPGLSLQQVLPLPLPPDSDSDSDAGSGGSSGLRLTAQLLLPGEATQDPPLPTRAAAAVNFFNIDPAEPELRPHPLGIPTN

NET = NET (Rattus norvegicus, UniProt Q63380); assay: NET-mediated release of [3H]MPP+ from rat brain synaptosomes; type: biochemical; details: read-out: NET-mediated release Emax
Chain of NET (Q63380 1-617): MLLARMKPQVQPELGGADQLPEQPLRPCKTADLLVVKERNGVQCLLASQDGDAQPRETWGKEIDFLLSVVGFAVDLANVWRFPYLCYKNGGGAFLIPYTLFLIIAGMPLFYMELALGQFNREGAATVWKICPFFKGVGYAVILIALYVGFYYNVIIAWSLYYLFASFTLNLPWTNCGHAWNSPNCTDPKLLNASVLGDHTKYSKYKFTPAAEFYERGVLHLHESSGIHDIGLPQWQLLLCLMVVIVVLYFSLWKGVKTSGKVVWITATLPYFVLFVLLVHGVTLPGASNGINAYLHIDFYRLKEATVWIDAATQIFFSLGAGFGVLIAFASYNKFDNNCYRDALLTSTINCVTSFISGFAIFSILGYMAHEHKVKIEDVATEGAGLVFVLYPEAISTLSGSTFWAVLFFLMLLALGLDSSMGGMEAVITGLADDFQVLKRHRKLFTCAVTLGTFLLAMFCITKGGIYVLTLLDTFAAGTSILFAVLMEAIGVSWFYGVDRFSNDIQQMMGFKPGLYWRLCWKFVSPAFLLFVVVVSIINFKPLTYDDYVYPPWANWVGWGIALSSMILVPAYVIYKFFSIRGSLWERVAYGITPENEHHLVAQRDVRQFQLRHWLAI

D1 = D1 (Homo sapiens, UniProt P21728); assay: Radioligand binding
Chain of D1 (P21728 whole entry): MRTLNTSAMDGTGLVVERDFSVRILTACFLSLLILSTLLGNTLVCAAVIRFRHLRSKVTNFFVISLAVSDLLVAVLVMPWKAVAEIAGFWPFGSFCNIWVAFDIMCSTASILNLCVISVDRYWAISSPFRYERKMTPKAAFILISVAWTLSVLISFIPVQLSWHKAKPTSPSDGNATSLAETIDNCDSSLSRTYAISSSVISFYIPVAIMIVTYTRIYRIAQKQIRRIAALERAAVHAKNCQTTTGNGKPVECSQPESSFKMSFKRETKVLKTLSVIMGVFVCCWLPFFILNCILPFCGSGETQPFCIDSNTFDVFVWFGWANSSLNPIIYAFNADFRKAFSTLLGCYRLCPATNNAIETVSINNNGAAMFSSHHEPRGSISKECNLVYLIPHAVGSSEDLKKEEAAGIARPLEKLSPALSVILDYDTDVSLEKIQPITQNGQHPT

rats = details: drug discrimination, cited from earlier work
α2A = target: T4, α2A (Homo sapiens, UniProt P08913); assay: Radioligand binding; details: for fold lower affinity for α2A compared to 2-AI: binding, [3H]rauwolscine
T4 sequence (P08913 1-465): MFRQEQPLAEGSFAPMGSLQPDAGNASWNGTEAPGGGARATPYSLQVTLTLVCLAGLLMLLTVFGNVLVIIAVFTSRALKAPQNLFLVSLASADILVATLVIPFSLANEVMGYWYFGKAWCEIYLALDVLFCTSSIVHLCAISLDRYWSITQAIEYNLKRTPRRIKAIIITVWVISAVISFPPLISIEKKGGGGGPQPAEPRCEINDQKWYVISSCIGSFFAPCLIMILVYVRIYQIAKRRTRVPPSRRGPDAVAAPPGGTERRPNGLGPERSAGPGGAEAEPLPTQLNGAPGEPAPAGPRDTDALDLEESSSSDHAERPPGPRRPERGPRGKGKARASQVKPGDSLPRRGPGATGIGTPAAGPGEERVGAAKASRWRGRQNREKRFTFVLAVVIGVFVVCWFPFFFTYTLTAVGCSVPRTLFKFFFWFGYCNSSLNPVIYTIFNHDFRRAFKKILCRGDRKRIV

5-HT1B = 5-HT1B (Homo sapiens, UniProt P28222); assay: Radioligand binding
Chain of 5-HT1B (P28222 whole entry): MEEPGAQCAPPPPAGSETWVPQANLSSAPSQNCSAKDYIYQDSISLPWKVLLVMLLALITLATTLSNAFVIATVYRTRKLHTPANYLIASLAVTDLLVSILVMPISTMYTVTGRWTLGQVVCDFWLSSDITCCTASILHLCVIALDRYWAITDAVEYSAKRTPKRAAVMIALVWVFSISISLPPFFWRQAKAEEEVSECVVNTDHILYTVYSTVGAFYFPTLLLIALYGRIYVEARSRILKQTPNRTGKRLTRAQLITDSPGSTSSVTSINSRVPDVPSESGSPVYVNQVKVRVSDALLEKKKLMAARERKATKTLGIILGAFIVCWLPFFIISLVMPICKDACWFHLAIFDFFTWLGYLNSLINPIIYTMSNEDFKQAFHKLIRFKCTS

5-HT1A = target: T5, 5-HT1A (Homo sapiens, UniProt P08908); assay: Radioligand binding
T5 sequence (P08908 1-422): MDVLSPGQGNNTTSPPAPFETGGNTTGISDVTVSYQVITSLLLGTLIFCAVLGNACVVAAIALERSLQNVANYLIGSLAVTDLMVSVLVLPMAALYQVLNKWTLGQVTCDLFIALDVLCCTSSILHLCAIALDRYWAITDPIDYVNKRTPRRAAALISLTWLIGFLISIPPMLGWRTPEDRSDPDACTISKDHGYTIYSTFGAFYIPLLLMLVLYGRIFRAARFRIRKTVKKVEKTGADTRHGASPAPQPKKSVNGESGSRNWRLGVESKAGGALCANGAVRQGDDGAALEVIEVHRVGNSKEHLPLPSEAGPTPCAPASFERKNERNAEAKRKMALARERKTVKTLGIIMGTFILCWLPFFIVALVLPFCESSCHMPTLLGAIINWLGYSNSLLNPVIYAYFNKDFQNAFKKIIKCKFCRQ

[1] = ref Oberlender and Nichols, 1991

| SMILES | Ki (5-HT2C) [µM] | Ki (5-HT7) [µM] | EC50 (SERT) [µM] | Ki (α1A) [µM] | Ki (α2C) [µM] | Ki (D2) [µM] | Ki (D3) [µM] | Ki (5-HT6) [µM] | Emax (NET) [%] | Ki (D1) [µM] | substitution in (+)-amphetamine-trained rats (rats; [1]) | Ki (α2A) [µM] | Ki (5-HT1B) [µM] | Ki (5-HT1A) [µM] | Emax (SERT) [%] | fold lower affinity for α2C compared to 2-AI (α2C) [fold] | fold lower affinity for α2A compared to 2-AI (α2A) [fold] | also measured |
| --- | --- | --- | --- | --- | --- | --- | --- | --- | --- | --- | --- | --- | --- | --- | --- | --- | --- | --- |
| NC1Cc2ccccc2C1 [2-AI, 2-aminoindan] | > 10 | > 10 | > 10 | > 10 | 0.041 ± 0.026 | > 10 | > 10 | > 10 | 95 | > 10 | partial substitution | 0.134 ± 0.031 | > 10 | > 10 | – | – | – | substitution for (+)-amphetamine (rats; ref Glennon et al. 1984): fully substituted |
| COc1ccc2c(c1)CC(N)C2 (stereo not shown) [5-MeO-AI, 5-methoxy-2-aminoindan] | > 10 | > 10 | 0.134 ± 0.013 | > 10 | 1.22 | > 10 | > 10 | > 10 | 101 | > 10 | – | 0.751 ± 0.338 | > 10 | 2.5 | 104 | 30 | 5 | – |
| NC1Cc2cc3c(cc2C1)OCO3 [MDAI, 5,6-methylenedioxy-2-aminoindan] | > 10 | > 10 | 0.114 ± 0.015 | > 10 | 0.363 ± 0.219 | > 10 | > 10 | > 10 | 99 | > 10 | did not substitute | 0.322 ± 0.114 | > 10 | > 10 | 102 | – | – | drug-appropriate responding in (+)-methamphetamine-trained rats (rats; ref Gatch et al. 2016): 75%; substitution in cocaine-trained rats (rats; ref Gatch et al. 2016): full substitution; substitution for MDMA and S-(+)-MBDB (rats; ref Nichols et al. 1990, Oberlender and Nichols 1990, Malmusi et al. 1996, Gatch et al. 2016): substituted |
| COc1cc2c(cc1C)CC(N)C2 (stereo not shown) [MMAI, 5-methoxy-6-methyl-2-aminoindan] | > 10 | 1.01 | 0.031 ± 0.005 | > 10 | 1.38 | > 10 | > 10 | > 10 | 105 | > 10 | – | 0.724 ± 0.477 | 2.78 | 1.08 | 99 | 30 | 5 | substitution in (+)-amphetamine-trained rats (rats; ref Johnson et al. 1991b): did not substitute; substitution in rats trained to discriminate MDMA and S-(+)-MBDB (rats; ref Johnson et al. 1991b): fully substituted |
